Data set [1] can be described thus: physchem. The settings on record: 20 °C.
For data set [2] the following is noted: rabbit, in vivo.
Data set [3] deals with cyanide toxicity. The settings on record: mouse, in vivo; cited from earlier work.
Data set [4] has as its system cyanide toxicity. The note with it: in vivo; cited from earlier work.

The source of these data is patent US9757354B2 (priority 2015, dated 2017).

Each structure is given as a SMILES string. Converted amounts (≈) assume the structure as drawn. Read-outs that look alike come from different tables or passages of the source.

A word on the solubility: it is the dissolved amount per volume that the medium holds. A high value points to much dissolved substance. Take `O=C([O-])C1(O)CSC(O)(C(=O)[O-])CS1.[Li+].[Li+]` (stereo not shown) [Compound 3b, Dilithium 2,5-Dihydroxy-1,4-dithiane-2,5-dicarboxylate]: the concentration in solution in data set [1] (solubility) was 1050 mM.

On to `NCCCC[C@H](N)C(=O)O.NCCCC[C@H](N)C(=O)O.O=C(O)C1(O)CSC(O)(C(=O)O)CS1` (stereo not shown) [lysine salt], for which, in data set [2], the “absorption of the antidote” value is recorded as “poor absorption” and the tolerability of injection result is listed as “poorly tolerated”. With `O=C([O-])C1(O)CSC(O)(C(=O)[O-])CS1.[K+].[K+]` (stereo not shown) [Compound 3c, Dipotassium 2,5-Dihydroxy-1,4-dithiane-2,5-dicarboxylate], the solubility in data set [1] was found to be 570 mM. With `O.O.O.O.O=C(O)C1(O)CSC(O)(C(=O)O)CS1.[Na].[Na]` (stereo not shown) [Compound 3a, disodium 2,5-dihydroxy-1,4-dithiane-2,5-dicarboxylic acid tetrahydrate], the rescue entry in data set [3] and in data set [4] was “highly effective” throughout. `O=C(O)C1(O)CSC(O)(C(=O)O)CS1` (stereo not shown) [Compound 2, 2,5-dihydroxy-1,4-dithiane-2,5-dicarboxylic acid] gave a solubility in data set [1] of 200 mM (≈ 48.1 mg/mL).
